Active and inactive are the calls of the source. No cut-off for these calls is given here.
How the values were obtained:
[1] = biological target: T1, Xanthine dehydrogenase/oxidase (Bos taurus, UniProt P80457); experiment: Inhibition of bovine xanthine oxidase assessed as reduction in uric acid formation using xanthine as substrate preincubated with enzyme for 15 mins followed by substrate addition and measured every 30 secs for 2 mins by spectrophotometric method
[2] = test system: Rattus norvegicus; experiment: Anti-hyperuricemic activity in potassium oxonate-induced acute hyperuricemia Sprague-Dawley rat model assessed as reduction in AUC of uric acid in serum at 10 mg/kg, ig pretreated for 1 hr followed by potassium oxonate challenge and measured at 2 hrs post drug administration (reference value: 23%); format: functional; settings: po
[3] = Acute oral toxicity in KM mouse assessed as change in behavior at 2000 mg/kg measured for 24 hrs; format: organism-based; settings: in vivo
[4] = test system: Rattus norvegicus; experiment: Anti-hyperuricemic activity in potassium oxonate-induced acute hyperuricemia Sprague-Dawley rat model assessed as reduction in AUC of uric acid in serum at 5 mg/kg, ig pretreated for 1 hr followed by potassium oxonate challenge and measured at 2 hrs post drug administration (reference value: 23%); format: functional; settings: po
[5] = biological target: T1, Xanthine dehydrogenase/oxidase; experiment: Mixed type inhibition of bovine xanthine oxidase assessed as increase in Km with decrease in Vmax of the enzyme using xanthine as substrate preincubated with enzyme for 15 mins followed by substrate addition and measured every 30 secs for 2 mins by Lineweaver-Burk plot analysis; settings: cattle
[6] = Acute oral toxicity in KM mouse measured for 24 hrs by OCED guideline method; settings: in vivo
[7] = test system: Rattus norvegicus; experiment: Anti-hyperuricemic activity in potassium oxonate-induced acute hyperuricemia Sprague-Dawley rat model assessed as reduction in uric acid level in serum at 5 mg/kg, ig pretreated for 1 hr followed by potassium oxonate challenge and measured at 2 hrs post drug administration; format: functional, organism-based
[8] = biological target: T1, Xanthine dehydrogenase/oxidase; experiment: Potency index, Ratio of allopurinol IC50 to compound IC50 for bovine xanthine oxidase using xanthine as substrate by spectrophotometry; settings: cattle

T1 sequence (P80457 whole entry): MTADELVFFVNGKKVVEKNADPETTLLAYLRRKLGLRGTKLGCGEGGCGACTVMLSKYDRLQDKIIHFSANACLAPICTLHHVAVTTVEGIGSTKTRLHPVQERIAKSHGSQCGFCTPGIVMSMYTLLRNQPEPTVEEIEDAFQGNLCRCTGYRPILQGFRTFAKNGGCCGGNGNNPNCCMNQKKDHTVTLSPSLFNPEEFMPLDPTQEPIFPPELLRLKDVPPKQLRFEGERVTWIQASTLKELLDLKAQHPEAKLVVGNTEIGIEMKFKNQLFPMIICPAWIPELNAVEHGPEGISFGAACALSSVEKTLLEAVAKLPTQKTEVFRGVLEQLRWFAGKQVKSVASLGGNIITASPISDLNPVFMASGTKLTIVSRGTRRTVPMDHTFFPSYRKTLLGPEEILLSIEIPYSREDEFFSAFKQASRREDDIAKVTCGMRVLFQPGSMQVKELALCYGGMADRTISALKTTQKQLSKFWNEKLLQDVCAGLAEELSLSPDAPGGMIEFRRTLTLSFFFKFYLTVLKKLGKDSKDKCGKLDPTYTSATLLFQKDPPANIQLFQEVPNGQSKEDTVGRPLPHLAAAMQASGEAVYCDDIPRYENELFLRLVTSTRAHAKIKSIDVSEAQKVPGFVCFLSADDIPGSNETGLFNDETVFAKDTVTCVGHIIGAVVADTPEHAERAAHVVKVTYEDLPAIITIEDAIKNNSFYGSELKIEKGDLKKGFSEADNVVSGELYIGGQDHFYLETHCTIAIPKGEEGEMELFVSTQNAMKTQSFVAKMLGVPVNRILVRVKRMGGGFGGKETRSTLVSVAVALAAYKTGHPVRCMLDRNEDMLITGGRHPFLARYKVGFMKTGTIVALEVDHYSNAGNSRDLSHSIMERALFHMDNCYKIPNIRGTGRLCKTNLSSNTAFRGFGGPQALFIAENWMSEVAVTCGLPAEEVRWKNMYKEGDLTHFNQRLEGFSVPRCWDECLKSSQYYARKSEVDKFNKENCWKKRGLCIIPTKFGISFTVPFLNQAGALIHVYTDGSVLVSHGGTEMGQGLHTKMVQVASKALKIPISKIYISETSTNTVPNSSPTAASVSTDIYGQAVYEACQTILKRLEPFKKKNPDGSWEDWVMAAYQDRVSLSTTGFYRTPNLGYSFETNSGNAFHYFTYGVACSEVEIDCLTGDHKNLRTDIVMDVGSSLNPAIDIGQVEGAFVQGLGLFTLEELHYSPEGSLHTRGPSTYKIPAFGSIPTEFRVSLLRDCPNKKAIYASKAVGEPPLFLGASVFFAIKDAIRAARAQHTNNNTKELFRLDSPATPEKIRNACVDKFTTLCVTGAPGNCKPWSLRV

Cc1ccc(COc2ccc(-c3ncc(C(=O)O)c(=N)[nH]3)cc2C#N)cc1
IC50 [1]: 33.9 nM

C=C(C)COc1ccc(-c2ncc(C(=O)O)c(=O)[nH]2)cc1C#N
IC50 [1]: 33.6 nM

Oc1ncnc2[nH]ncc12 [ALLOPURINOL]
inhibition in vivo at 10 mg/kg [2]: 38.7%

CC(C)COc1ccc(-c2ncc(C(=O)O)c(=O)[nH]2)cc1C#N
IC50 [1]: 60.9 nM

C=C(C)COc1ccc(-c2nc(C)c(C(=O)O)c(=O)[nH]2)cc1C#N
IC50 [1]: 568 nM

Cc1nc(-c2ccc(OCc3ccc(Br)cc3)c(C#N)c2)[nH]c(=O)c1C(=O)O
IC50 [1]: 185 nM

C=CCOc1ccc(-c2ncc(C(=O)O)c(=O)[nH]2)cc1C#N
IC50 [1]: 81.1 nM

Cc1nc(-c2ccc(OCCC(C)C)c(C#N)c2)[nH]c(=O)c1C(=O)O
IC50 [1]: 540 nM

CC(C)=CCOc1ccc(-c2ncc(C(=O)O)c(=O)[nH]2)cc1C#N
IC50 [1]: 38.8 nM

CC(C)(C)c1ccc(COc2ccc(-c3ncc(C(=O)O)c(=O)[nH]3)cc2C#N)cc1
IC50 [1]: 197 nM

CC(C)Oc1ccc(-c2ncc(C(=O)O)c(=O)[nH]2)cc1C#N
IC50 [1]: 91.6 nM

N#Cc1cc(-c2ncc(C(=O)O)c(=N)[nH]2)ccc1OCc1ccc(Br)cc1
IC50 [1]: 27.1 nM

N#Cc1cc(-c2ncc(C(=O)O)c(=O)[nH]2)ccc1OCc1ccc(F)cc1
IC50 [1]: 38.2 nM

N#Cc1cc(-c2ncc(C(=O)O)c(=O)[nH]2)ccc1OCc1ccccc1
IC50 [1]: 38.7 nM

N#Cc1cc(-c2ncc(C(=O)O)c(=O)[nH]2)ccc1OCc1ccc(Cl)cc1
IC50 [1]: 49.9 nM

CC(C)CCOc1ccc(-c2ncc(C(=O)O)c(=N)[nH]2)cc1C#N
Activity [3]: Non-Toxic
inhibition in vivo at 5 mg/kg [4]: 36.1%
inhibition (INH) [5]: Active
LD50 at 24 h [6]: > 2000 mg/kg
inhibition [7]: Active

CC(C)CCOc1ccc(-c2ncc(C(=O)O)c(=O)[nH]2)cc1C#N
IC50 [1]: 25 nM

C=C(C)COc1ccc(-c2ncc(C(=O)O)c(=N)[nH]2)cc1C#N
Ratio IC50 [8]: 419
IC50 [1]: 18.1 nM

Cc1ccc(COc2ccc(-c3nc(C)c(C(=O)O)c(=O)[nH]3)cc2C#N)cc1
IC50 [1]: 159 nM

Cc1ccc(COc2ccc(-c3ncc(C(=O)O)c(=O)[nH]3)cc2C#N)cc1
IC50 [1]: 35.4 nM

N#Cc1cc(-c2ncc(C(=O)O)c(=O)[nH]2)ccc1OCc1ccc(Br)cc1
IC50 [1]: 29.8 nM

Cc1nc(-c2ccc(OCC(C)C)c(C#N)c2)sc1C(=O)O [FEBUXOSTAT]
inhibition in vivo at 5 mg/kg [4]: 50.8%

— ChEMBL document CHEMBL4364326, “Design, synthesis and biological evaluation of 2-(4-alkoxy-3-cyano)phenyl-6-oxo-1,6-dihydropyrimidine-5-carboxylic acid derivatives as novel xanthine oxidase inhibitors” (Eur J Med Chem, 2019)
